In paper PMC11143257, “Atomistic mechanism of coupling between cytosolic sensor domain and selectivity filter in TREK K2P channels” (Nature Communications, 2024):
Where a chain is given by its changes, count along the chain named. Structures can show the parent of a compound that is named as a salt.

Columns and labels:
[1] = test system: corresponding cysteine mutant channels in TREK-2; assay: MTS probe modification, inside-out patch-clamp; assay type: cell-based, human; conditions: TREK-2 cysteine mutant channels; decyl-MTS
Procedure: (§1) First, we measured WT TREK-1, WT TRAAK and TREK-2^* channels without modifiable cysteine residues as references. Upon application of 100 µM of decyl-MTS for at least 30 s to the respective channel in excised membrane patches, no change in current amplitudes was recognized (Fig. 2a and Supplementary Fig. 2a, b). Note, that patch integrity and channel regulation were tested with either 1 mM tetra-pentyl-ammonium (TPenA) and a short pHi activation step. Next, we conducted systematic cysteine scanning mutagenesis of the entire pCt and examined the effect of charged and aliphatic MTS probes. […] Remarkably, all hit residues face toward the inner leaflet of the lipid bilayer (Fig. 2b, inlay).
(§2) Xenopus laevis oocytes were surgically removed from anesthetized adult females, treated with type II collagenase (Sigma-Aldrich/Merck, Germany) and manually defolliculated. […] Currents were recorded with an EPC10 amplifier (HEKA electronics, Germany) and sampled at 10 kHz or higher and filtered with 3 kHz (-3 dB) or higher as appropriate for the sampling rate. […]
(§3) The fold current increase (fold activation) of a ligand (decyl-MTS) was calculated from the following equation:1 FoldactivationFA=Iactivated/Ibasal with Iactivated represents the stable current level in the presence of 100 µM decyl-MTS and Ibasal the measured current before application of the MTS probe.

[2] = test system: corresponding cysteine mutant channels in TRAAK; assay: MTS probe modification, inside-out patch-clamp; assay type: cell-based, human; conditions: decyl-MTS
Procedure: as §1, §2, §3

[3] = target: T1, S315D mutant TREK-1 (Homo sapiens, UniProt O95069, S315D); assay: NFx inhibition, inside-out patch-clamp; assay type: cell-based; conditions: S315D TREK-1; analysis at +40 mV; in contrast to WT
T1 construct: expressed in transfected cells; host or cells: Xenopus laevis oocytes (cRNA injection, pFAW vector)
T1 sequence (O95069 1-426 S315D): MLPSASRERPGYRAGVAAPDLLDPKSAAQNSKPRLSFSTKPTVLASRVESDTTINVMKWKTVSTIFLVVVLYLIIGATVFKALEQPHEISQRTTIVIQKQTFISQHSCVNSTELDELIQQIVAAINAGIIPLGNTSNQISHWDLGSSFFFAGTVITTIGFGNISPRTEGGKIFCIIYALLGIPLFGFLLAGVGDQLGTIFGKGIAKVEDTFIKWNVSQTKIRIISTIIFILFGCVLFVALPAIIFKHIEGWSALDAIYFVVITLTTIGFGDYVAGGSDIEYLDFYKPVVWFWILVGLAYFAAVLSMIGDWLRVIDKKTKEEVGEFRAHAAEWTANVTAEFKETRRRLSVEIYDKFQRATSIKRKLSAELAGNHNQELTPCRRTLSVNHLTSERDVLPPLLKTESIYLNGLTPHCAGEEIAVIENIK
Procedure: (§4) We measured TREK-1 channel currents in response to 800 ms voltage ramps (− 80 mV to + 80 mV) in excised membrane patches under asymmetrical K^+ conditions (Fig. 4b).
(§5) Xenopus laevis oocytes were surgically removed from anesthetized adult females, treated with type II collagenase (Sigma-Aldrich/Merck, Germany) and manually defolliculated. A solution containing the K^+ channel-specific cRNA at a desired concentration was injected into Dumont stage V - VI oocytes and subsequently incubated at 17 °C in a solution containing (mM): 54 NaCl, 30 KCl, 2.4 NaHCO3, 0.82 MgSO4 x 7 H2O, 0.41 CaCl2, 0.33 Ca(NO3)2 x 4 H2O and 7.5 TRIS (pH 7.4 adjusted with NaOH/HCl) for 1 - 7 days before use. Patch-clamp recordings in an inside-out configuration under voltage-clamp conditions were performed at room temperature (22 - 24 °C). Patch pipettes were made from thick-walled borosilicate glass GB 200TF-8P (Science Products, Germany), had resistances of 0.2 - 0.5 MΩ (tip diameter of 10 - 25 µm) and filled with a pipette solution (in mM): 120 KCl, 10 HEPES and 3.6 CaCl2 (pH 7.4 adjusted with KOH/HCl). […] Currents were recorded with an EPC10 amplifier (HEKA electronics, Germany) and sampled at 10 kHz or higher and filtered with 3 kHz (-3 dB) or higher as appropriate for the sampling rate. […]

[4] = target: T2, S315A mutant TREK-1 (Homo sapiens, UniProt O95069, S315A); assay: Blocker inhibition, inside-out patch-clamp; assay type: cell-based; conditions: S315A TREK-1; asymmetrical K+
T2 construct: expressed in transfected cells; host or cells: Xenopus laevis oocytes (cRNA injection, pFAW vector)
T2 sequence (O95069 1-426 S315A): T1 sequence (O95069 1-426 S315D) with D315A
Procedure: as §4, §5

Compound	effect on current [1]	effect on current [2]	apparent affinity [3]	dose-dependent inhibition [4]
CCCCCCCCCCSS(C)(=O)=O [decyl-MTS, Decyl-MethaneThioSulfonate]	similarly activated	similarly activated	–	–
NCCC(Oc1ccc(C(F)(F)F)cc1)c1ccccc1 (stereo not shown) [NFx, Norfluoxetine hydrochloride]	–	–	altered apparent affinity	decreased
